Test results: patent US20160114050A1, “Heparosan/Therapeutic Prodrug Complexes and Methods of Making and Using Same” (The Board of Regents of the University of Oklahoma, priority 2014, published 2016)

Columns and labels:
[1] = target: T1, mammalian heparanase (HEPase) (Homo sapiens, UniProt Q9Y251); conditions: cited from earlier work
T1 sequence (Q9Y251 158-543 limits assumed): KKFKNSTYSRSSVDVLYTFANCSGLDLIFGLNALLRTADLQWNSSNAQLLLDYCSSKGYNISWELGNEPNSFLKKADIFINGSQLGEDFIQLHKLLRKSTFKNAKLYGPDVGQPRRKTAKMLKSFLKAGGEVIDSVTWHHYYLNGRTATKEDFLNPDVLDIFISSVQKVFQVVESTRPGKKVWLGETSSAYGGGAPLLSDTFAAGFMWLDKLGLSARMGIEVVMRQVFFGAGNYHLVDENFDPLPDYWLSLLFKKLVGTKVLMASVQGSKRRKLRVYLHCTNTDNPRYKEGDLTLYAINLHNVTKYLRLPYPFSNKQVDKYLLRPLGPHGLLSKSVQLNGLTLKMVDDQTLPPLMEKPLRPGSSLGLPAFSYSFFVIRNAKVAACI
T1 sequence (Q9Y251 36-109 limits assumed): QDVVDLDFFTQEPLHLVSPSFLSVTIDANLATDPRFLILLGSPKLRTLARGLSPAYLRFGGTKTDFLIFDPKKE

[2] = system: anti-heparosan antibodies; assay: ELISA serological test for anti-heparosan IgG/IgM antibodies after repeated immunization; type: in vivo; conditions: rat, multiple boosts over approximately seven months
Source text: FIG. 7 depicts the serological test results for potential induction of anti-heparosan antibodies against a heparosan-containing molecule (HEP-G-CSF, heparosan sugar polymer attached to the Granulocyte Colony Stimulating Factor (G-CSF) protein) in a rat model. A control pre-immune sera was collected, and then three animals (Rat #1, #2, and #3) were immunized and periodically boosted with HEP-G-CSF eight times over an approximately seven month period followed by periodic test bleeds. The various serum samples were tested in 96-well plates via ELISA. First, the wells of the plate were coated either with: (i) bovine serum albumin (BSA) to assess the background (‘Control’ shown in grey bars); or (ii) heparosan-BSA (HEP-BSA) conjugate (‘HEP’; shown in black bars), to measure any potential immune response. After blocking all the wells with BSA and washing thoroughly, 1 μl of the pre-immunization serum (the negative control Prebleed, ‘PreB’) or post-immunization serum (collected either on week 9 (Bleed #1; B#1), week 15 (B#2), or week 30 (B#3)) was incubated with wells (the rats had 3, 5, or 9 injections of test antigen, respectively, before these three bleeds). After washing the wells, the presence of any bound rat antibodies was determined by interaction with either an anti-rat IgG (Panel A) or an anti-rat lgM (Panel B) goat secondary antibody-horseradish peroxidase conjugate. […]

Molecule	HEPase? substantially sensitive to cleavage by mammalian heparanase [1]	induction of specific anti-heparosan antibodies (IgG, IgM) [2]
Dermatan sulfate	No	–
HEP-G-CSF (conjugate, UniProt P09919 31-207, looked up, heparosan polymer conjugate) Granulocyte …: TPLGPASSLPQSFLLKCLEQVRKIQGDGAALQEKLVSECATYKLCHPEELVLLGHSLGIPWAPLSSCPSQALQLAGCLSQLHSGLFLYQGLLQALEGISPELGPTLDTLQLDVADFATTIWQQMEELGMAPALQPTQGAMPAFASAFQRRAGGVLVASHLQSFLEVSYRVLRHLAQP	–	no specific antibodies against heparosan were observed
